Assay [1] concerns the target T1, Poly [ADP-ribose] polymerase tankyrase-2 (Homo sapiens, UniProt Q9H2K2).
T1 sequence (Q9H2K2 whole entry): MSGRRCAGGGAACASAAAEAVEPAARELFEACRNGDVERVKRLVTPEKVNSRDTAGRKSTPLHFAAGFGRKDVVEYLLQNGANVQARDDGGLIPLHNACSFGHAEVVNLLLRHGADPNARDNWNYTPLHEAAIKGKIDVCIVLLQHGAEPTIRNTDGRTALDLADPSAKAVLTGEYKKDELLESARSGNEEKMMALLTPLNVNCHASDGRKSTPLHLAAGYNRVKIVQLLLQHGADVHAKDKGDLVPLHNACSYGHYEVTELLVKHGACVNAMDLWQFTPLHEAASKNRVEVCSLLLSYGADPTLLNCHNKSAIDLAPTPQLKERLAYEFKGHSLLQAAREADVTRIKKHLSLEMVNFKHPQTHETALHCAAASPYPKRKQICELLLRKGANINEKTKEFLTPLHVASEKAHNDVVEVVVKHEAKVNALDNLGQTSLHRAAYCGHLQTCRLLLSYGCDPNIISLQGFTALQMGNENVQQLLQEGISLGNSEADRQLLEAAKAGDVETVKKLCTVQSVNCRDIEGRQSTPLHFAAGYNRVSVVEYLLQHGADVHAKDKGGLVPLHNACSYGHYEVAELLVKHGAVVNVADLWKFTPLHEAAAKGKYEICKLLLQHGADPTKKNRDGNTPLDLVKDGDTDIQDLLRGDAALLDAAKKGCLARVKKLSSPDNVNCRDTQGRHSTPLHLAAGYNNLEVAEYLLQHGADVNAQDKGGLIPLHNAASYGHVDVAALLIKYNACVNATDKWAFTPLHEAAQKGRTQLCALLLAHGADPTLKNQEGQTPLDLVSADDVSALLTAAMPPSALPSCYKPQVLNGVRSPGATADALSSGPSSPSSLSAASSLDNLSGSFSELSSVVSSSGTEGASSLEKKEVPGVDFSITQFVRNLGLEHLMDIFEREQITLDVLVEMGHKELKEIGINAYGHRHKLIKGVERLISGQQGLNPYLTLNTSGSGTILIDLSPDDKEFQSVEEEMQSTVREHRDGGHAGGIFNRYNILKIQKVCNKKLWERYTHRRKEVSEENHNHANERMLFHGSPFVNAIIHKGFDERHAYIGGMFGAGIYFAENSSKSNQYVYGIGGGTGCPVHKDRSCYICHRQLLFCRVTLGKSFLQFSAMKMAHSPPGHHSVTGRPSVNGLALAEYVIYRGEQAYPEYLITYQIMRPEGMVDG
Briefly: Inhibition of tankyrase 2 catalytic domain (unknown origin) expressed in Escherichia coli BL21 (DE3) assessed as reduction in ADP-ribosyl transferase activity using NAD+ by chemiluminescence detection based assay.

Assay [2] concerns the target Poly [ADP-ribose] polymerase 1 (Homo sapiens, UniProt P09874). Briefly: Inhibition of full length PARP1 (unknown origin) expressed in Escherichia coli BL21 (DE3) assessed as reduction in ADP-ribosyl transferase activity using NAD+ by chemiluminescence detection based assay.
Assay [3] deals with T2, Protein mono-ADP-ribosyltransferase PARP10 (Homo sapiens, UniProt Q53GL7).
T2 sequence (Q53GL7 whole entry): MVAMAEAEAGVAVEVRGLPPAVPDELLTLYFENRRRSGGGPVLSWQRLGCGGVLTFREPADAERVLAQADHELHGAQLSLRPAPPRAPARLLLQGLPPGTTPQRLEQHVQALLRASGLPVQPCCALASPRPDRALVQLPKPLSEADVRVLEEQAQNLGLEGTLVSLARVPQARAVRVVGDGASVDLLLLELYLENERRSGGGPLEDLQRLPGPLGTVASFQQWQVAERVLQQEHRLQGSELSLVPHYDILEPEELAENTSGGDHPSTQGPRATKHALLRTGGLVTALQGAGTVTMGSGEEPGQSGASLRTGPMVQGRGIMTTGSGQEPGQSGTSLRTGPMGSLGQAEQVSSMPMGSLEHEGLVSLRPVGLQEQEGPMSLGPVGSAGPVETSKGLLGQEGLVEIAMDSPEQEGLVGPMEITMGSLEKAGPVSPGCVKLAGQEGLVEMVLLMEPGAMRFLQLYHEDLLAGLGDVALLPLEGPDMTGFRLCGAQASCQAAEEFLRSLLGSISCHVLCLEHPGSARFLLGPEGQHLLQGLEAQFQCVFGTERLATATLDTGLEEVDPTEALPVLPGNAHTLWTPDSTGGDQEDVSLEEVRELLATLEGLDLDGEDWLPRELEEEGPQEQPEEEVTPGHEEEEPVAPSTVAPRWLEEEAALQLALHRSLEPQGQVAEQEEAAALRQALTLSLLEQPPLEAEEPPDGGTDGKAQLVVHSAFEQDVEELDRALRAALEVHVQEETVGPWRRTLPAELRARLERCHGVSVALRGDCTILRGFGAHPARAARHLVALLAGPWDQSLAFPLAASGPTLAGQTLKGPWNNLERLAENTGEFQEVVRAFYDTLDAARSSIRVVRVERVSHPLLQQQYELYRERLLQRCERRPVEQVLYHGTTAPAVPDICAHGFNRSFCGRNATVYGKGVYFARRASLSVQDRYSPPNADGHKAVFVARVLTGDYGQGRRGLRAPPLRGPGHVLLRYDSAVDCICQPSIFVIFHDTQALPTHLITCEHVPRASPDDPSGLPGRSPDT
Briefly: Inhibition of full length PARP10 (unknown origin) expressed in Escherichia coli BL21 (DE3) assessed as reduction in ADP-ribosyl transferase activity using NAD+ by chemiluminescence detection based assay.

Assay [4] concerns the target T3, Poly [ADP-ribose] polymerase tankyrase-1 (Homo sapiens, UniProt O95271).
T3 sequence (O95271 whole entry): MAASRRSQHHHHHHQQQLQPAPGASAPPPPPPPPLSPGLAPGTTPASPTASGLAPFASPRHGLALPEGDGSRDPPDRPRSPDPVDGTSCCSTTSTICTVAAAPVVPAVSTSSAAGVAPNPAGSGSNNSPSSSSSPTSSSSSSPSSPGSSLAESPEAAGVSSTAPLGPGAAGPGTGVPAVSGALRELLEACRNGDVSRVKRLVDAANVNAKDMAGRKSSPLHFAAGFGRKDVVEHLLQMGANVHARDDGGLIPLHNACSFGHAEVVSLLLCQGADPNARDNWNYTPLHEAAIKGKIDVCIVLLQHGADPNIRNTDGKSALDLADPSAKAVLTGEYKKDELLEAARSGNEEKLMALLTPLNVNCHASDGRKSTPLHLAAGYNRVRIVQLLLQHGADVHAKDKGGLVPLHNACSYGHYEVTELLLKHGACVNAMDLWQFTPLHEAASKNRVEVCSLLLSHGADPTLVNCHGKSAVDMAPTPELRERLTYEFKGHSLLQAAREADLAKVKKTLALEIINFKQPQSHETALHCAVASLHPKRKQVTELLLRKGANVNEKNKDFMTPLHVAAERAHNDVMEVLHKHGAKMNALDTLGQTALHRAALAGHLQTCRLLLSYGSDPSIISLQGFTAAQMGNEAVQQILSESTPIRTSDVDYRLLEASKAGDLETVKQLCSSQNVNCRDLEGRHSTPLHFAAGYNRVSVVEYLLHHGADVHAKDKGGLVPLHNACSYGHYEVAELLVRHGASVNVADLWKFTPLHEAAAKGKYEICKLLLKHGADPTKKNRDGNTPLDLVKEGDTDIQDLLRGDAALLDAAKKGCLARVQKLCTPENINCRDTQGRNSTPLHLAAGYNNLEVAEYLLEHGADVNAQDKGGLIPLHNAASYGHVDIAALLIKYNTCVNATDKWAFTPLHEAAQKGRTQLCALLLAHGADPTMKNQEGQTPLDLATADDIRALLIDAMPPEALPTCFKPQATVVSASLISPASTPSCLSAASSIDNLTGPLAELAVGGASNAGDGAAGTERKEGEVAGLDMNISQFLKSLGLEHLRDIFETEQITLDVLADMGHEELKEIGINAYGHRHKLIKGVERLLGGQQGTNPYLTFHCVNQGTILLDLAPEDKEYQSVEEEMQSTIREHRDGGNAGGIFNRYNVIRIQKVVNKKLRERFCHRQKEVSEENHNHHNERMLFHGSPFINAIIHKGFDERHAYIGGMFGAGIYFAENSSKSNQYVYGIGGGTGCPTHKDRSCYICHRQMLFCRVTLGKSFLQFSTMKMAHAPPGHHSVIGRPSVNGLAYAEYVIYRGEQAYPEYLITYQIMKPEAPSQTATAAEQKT
Briefly: Inhibition of hexa-histidine tagged recombinant tankyrase 1 biotinylated catalytic domain (amino acids 1106 to 1325) (unknown origin) expressed in Escherichia coli BL21 (DE3) assessed as reduction in ADP-ribosyl transferase activity using NAD+ by chemiluminescence detection based assay.

A value given as a limit tells only on which side of the number the result lay.

Sequence of Poly [ADP-ribose] polymerase 1 (P09874 whole entry): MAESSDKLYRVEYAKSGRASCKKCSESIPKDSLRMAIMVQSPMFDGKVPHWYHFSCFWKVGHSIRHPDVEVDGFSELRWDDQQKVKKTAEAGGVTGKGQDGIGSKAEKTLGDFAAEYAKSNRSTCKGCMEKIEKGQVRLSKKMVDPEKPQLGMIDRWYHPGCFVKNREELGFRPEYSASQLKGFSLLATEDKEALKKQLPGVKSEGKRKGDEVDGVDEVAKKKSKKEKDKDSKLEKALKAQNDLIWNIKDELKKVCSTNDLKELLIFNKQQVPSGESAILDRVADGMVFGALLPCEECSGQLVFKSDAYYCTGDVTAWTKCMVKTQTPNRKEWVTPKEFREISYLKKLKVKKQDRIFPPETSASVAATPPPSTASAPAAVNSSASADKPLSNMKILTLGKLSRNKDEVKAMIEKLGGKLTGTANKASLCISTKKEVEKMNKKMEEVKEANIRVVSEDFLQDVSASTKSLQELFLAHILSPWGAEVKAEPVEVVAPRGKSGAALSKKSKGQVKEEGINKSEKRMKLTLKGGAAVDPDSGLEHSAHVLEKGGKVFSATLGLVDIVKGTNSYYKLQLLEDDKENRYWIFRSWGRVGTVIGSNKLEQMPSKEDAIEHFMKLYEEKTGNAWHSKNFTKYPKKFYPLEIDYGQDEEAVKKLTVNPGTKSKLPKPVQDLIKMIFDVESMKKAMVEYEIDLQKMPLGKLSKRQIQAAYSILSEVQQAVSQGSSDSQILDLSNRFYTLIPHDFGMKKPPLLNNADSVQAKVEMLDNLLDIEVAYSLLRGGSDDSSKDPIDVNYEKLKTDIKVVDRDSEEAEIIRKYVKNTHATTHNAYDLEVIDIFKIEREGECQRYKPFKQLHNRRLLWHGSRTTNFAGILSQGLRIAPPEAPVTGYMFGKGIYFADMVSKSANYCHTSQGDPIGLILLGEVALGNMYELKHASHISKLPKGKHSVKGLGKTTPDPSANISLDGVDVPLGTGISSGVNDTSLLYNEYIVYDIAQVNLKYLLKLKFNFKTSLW

Regarding `O=C1CCN(c2ccccc2C(=O)NCCc2nc(-c3ccccn3)no2)C(=O)N1`, the IC50 in assay [1] (read-out: IC50) is 8100 nM; in assay [1] (read-out: pIC50 (converted)) it was 8130 nM; in assay [2], 260 nM; in assay [3], 2200 nM; in assay [4], 250 nM.

For the compound `COc1ccc2c(c1)C(CC(=O)N1CCN(C(=O)c3ccccc3N3CCC(=O)NC3=O)CC1)CC2=O` (configuration not stated), the IC50 in assay [1] (read-out: IC50) is 330 nM; in assay [1] (read-out: pIC50 (converted)) it was 331 nM; in assay [2], 200 nM; in assay [3], 34000 nM; in assay [4] it was 290 nM.

In the case of `COc1ccc2c(c1)C(CC(=O)N[C@@H](CNC(=O)c1ccccc1N1CCC(=O)NC1=O)C(N)=O)CC2=O` (some centres not stated), the IC50 in assay [1] (read-out: IC50) was 470 nM; in assay [1] (read-out: pIC50 (converted)) it was 468 nM; in assay [2], 28 nM; in assay [3] it was above 50000 nM; in assay [4] it was 370 nM.

As to `COc1ccc2c(c1)C(CC(=O)NCCNC(=O)c1ccccc1N1CCC(=O)NC1=O)CC2=O` (configuration not stated), the IC50 in assay [1] (read-out: IC50) was 7900 nM; in assay [1] (read-out: pIC50 (converted)), 7940 nM; in assay [2], 41 nM; in assay [4] it was 290 nM.

As to `O=C1CCN(c2ccccc2C(=O)NCCc2ccc(Cl)cc2)C(=O)N1`, the IC50 is 2400 nM in assay [1] (read-out: IC50), 2400 nM in assay [1] (read-out: pIC50 (converted)), above 50000 nM in assay [3] and 570 nM in assay [4].

On to `CN(Cc1ccc(-n2cccn2)cc1)C(=O)c1ccccc1N1CCC(=O)NC1=O`, for which the IC50 in assay [4] stood at 2500 nM.

As to `O=C1CCN(c2ccccc2C(=O)NCc2ccc(-n3cccn3)cc2)C(=O)N1`, the IC50 in assay [1] (read-out: IC50) is 8300 nM; in assay [1] (read-out: pIC50 (converted)) it was 8320 nM; in assay [2], 220 nM; in assay [3], above 50000 nM; in assay [4] it was 330 nM.

Regarding `O=C1CCN(c2ccccc2C(=O)NCCc2ccccc2)C(=O)N1`, the IC50 in assay [4] was 4600 nM.

Turning to `O=C1CCN(c2ccccc2C(=O)NCCc2ccc(Cl)cc2Cl)C(=O)N1`, the IC50 in assay [2] is 110 nM; in assay [3] it was above 50000 nM; in assay [4] it was 700 nM.

As to `O=C1CCN(c2ccccc2C(=O)NCCc2ccc(Br)cc2)C(=O)N1`, the IC50 in assay [1] (read-out: IC50) is 910 nM; in assay [1] (read-out: pIC50 (converted)), 912 nM; in assay [3], above 50000 nM; in assay [4], 350 nM.
